In patent US20080009511A1, “Cancer treatment with compounds inhibiting PKC alpha” (priority 2004, published 2008):

Assays:
KB oral cancer cells = test: Cell viability assay (trypan blue dye exclusion), viable cells counted at day 6; format: cell-based, human; details: 10 micromoles; for Treated (cell number × 10^5): about 4×10^4 cells seeded, untreated 3.8 ± 0.4; for % inhibiton: growth vs untreated
Procedure: (§1) The following cancer cells were maintained in Dulbecco's modified Eagle medium (DMEM) supplemented with 10 percent bovine calf serum. Cells were seeded for 24 hours. Then they were treated with PKC inhibitors or left untreated. The cells were then collected periodically and evaluated using trypan blue dye exclusion to assess viability using the method described by C Y Chen, et al., in J. Biol. Chem. 273:16700-16709. Cultures containing about 4×10^4 cells were treated with 5 micromoles of Gö7874 (except that PC3 prostate cancer cells were treated with 10 micromoles) and the viable cells were counted at day 6. […] Cultures containing about 4×10^4 cells were treated with or without 10 micromoles of Gö6850 and the viable cells were counted at day 6. […] Cultures containing about 4×10^4 cells were treated with or without 10 micromoles of NGIC-I and the viable cells were counted at day 6. […] Cultures containing about 4×10^4 cells were treated with or without 10 micromoles of Ro31-7549 and the viable cells were counted at day 6. […] Cultures containing about 4×10^4 cells were treated with or without 10 micromoles of Ro31-8220 and the viable cells were counted at day 6. […] Cultures containing about 4×10^4 cells were treated with or without 10 micromoles of Ro31-8425 and the viable cells were counted at day 6. […] Cultures containing about 4×10^4 cells were treated with or without 10 micromoles of Ro31-0432 and the viable cells were counted at day 6.

[1] = system: HepG2 human liver cancer cells; test: as above; format: cell-based; details: 10 micromoles; for Treated (cell number × 10^5): about 4×10^4 cells seeded, untreated 4.2 ± 0.4; for % inhibiton: growth vs untreated
Procedure: as §1

[2] = system: H460 human lung cancer cells; test: as above; format: cell-based; details: 10 micromoles; for Treated (cell number × 10^5): about 4×10^4 cells seeded, untreated 2.4 ± 0.2; for % inhibiton: growth vs untreated
Procedure: as §1

[3] = system: Jurkat cells (a human acute T-cell leukemia cell line); test: as above; format: cell-based; details: 10 micromoles; for Treated (cell number × 10^5): about 4×10^4 cells seeded, untreated 8.8 ± 0.4; for % inhibiton: growth vs untreated
Procedure: as §1

U251 human glioma cells = test: as above; format: cell-based; details: 10 micromoles; for Treated (cell number × 10^5): about 4×10^4 cells seeded, untreated 9.6 ± 0.5; for % inhibiton: growth vs untreated
Procedure: as §1

[4] = system: A431 human epidermoid carcinoma cells; test: as above; format: cell-based; details: 10 micromoles; for Treated (cell number × 10^5): about 4×10^4 cells seeded, untreated 5.4 ± 0.4; for % inhibiton: growth vs untreated
Procedure: as §1

[5] = system: Hela human cervical cancer cells; test: as above; format: cell-based; details: 10 micromoles; for Treated (cell number × 10^5): about 4×10^4 cells seeded, untreated 3.4 ± 0.4; for % inhibiton: growth vs untreated
Procedure: as §1

[6] = system: NBT-II human bladder cancer cells; test: as above; format: cell-based; details: 10 micromoles; for Treated (cell number × 10^5): about 4×10^4 cells seeded, untreated 2.9 ± 0.4; for % inhibiton: growth vs untreated
Procedure: as §1

[7] = system: MDA-MB-468 human breast cancer cells; test: as above; format: cell-based; details: 10 micromoles; for Treated (cell number × 10^5): about 4×10^4 cells seeded, untreated 6.1 ± 0.4; for % inhibiton: growth vs untreated
Procedure: as §1

[8] = system: HT29 human colon cancer cells; test: as above; format: cell-based; details: 10 micromoles; for Treated (cell number × 10^5): about 4×10^4 cells seeded, untreated 3.8 ± 0.4; for % inhibiton: growth vs untreated
Procedure: as §1

[9] = system: PC3 human prostate cancer cells; test: as above; format: cell-based; details: 10 micromoles; for Treated (cell number × 10^5): about 4×10^4 cells seeded, untreated 7.1 ± 0.3; for % inhibiton: growth vs untreated
Procedure: as §1

[10] = system: AGS human gastric cancer cells; test: as above; format: cell-based; details: 10 micromoles; for Treated (cell number × 10^5): about 4×10^4 cells seeded, untreated 2.4 ± 0.3; for % inhibiton: growth vs untreated
Procedure: as §1

[11] = system: PANC-1 human pancreatic carcinoma cells; test: as above; format: cell-based; details: 10 micromoles; for Treated (cell number × 10^5): about 4×10^4 cells seeded, untreated 2.1 ± 0.3; for % inhibiton: growth vs untreated
Procedure: as §1

human cancer cells = test: Cell viability assay, summary over the panel of cancer cells; format: cell-based; details: 10 micromoles; day 6; cell lines not named as going to apoptosis
Procedure: The following cancer cells were maintained in Dulbecco's modified Eagle medium (DMEM) supplemented with 10 percent bovine calf serum. Cells were seeded for 24 hours. Then they were treated with PKC inhibitors or left untreated. The cells were then collected periodically and evaluated using trypan blue dye exclusion to assess viability using the method described by C Y Chen, et al., in J. Biol. Chem. 273:16700-16709. Cultures containing about 4×10^4 cells were treated with or without 10 micromoles of Gö6850 and the viable cells were counted at day 6. […] Cultures containing about 4×10^4 cells were treated with or without 10 micromoles of NGIC-I and the viable cells were counted at day 6. […] Cultures containing about 4×10^4 cells were treated with or without 10 micromoles of Ro31-7549 and the viable cells were counted at day 6. […] Cultures containing about 4×10^4 cells were treated with or without 10 micromoles of Ro31-8220 and the viable cells were counted at day 6. […] Cultures containing about 4×10^4 cells were treated with or without 10 micromoles of Ro31-8425 and the viable cells were counted at day 6. […] Cultures containing about 4×10^4 cells were treated with or without 10 micromoles of Ro31-0432 and the viable cells were counted at day 6.

| Compound | Treated (cell number × 10^5) (KB oral cancer cells) | % inhibiton (KB oral cancer cells) | Treated (cell number × 10^5) [1] | % inhibiton [1] | Treated (cell number × 10^5) [2] | % inhibiton [2] | Treated (cell number × 10^5) [3] | % inhibiton [3] | Treated (cell number × 10^5) (U251 human glioma cells) | % inhibiton (U251 human glioma cells) | Treated (cell number × 10^5) [4] | % inhibiton [4] | Treated (cell number × 10^5) [5] | % inhibiton [5] | Treated (cell number × 10^5) [6] | % inhibiton [6] | % inhibiton [7] | Treated (cell number × 10^5) [8] | % inhibiton [8] | Treated (cell number × 10^5) [9] | further results |
| --- | --- | --- | --- | --- | --- | --- | --- | --- | --- | --- | --- | --- | --- | --- | --- | --- | --- | --- | --- | --- | --- |
| CN(C)CCCn1cc(C2=C(c3c[nH]c4ccccc34)C(=O)NC2=O)c2ccccc21 [Gö6850, 2-[1-(3-Dimethylaminopropyl)-1H-indol-3-yl]-3-(1H-indol-3-yl)-maleimide] | 1.7 × 10^5 | 55% | 2.4 × 10^5 | 41% | 1.6 × 10^5 | 31% | 4.1 × 10^5 | 53% | 7.2 × 10^5 | 23% | 4.1 × 10^5 | 24% | 0.3 × 10^5 | * (indicates the inhibitor causes significant cell death, and cell number is less than originally seeded cell number.) | 1.3 × 10^5 | 57% | 25% | 2.4 × 10^5 | 22% | 2.8 × 10^5 | cell numbers of treated cells [5]: significantly reduced cell numbers; Treated (cell number × 10^5) [7]: 4.6 ± 0.2 × 10^5; % inhibiton [9]: 60%; Treated (cell number × 10^5) [10]: 1.5 × 10^5; % inhibiton [10]: 34%; Treated (cell number × 10^5) [11]: 1.4 × 10^5; % inhibiton [11]: 30%; inhibition of growth in contrast to untreated cells, range over the other treated cancer cells (human cancer cells): 25-60% |
| N#CCCn1c2ccccc2c2c3c(c4c5ccccc5[nH]c4c21)C(=O)NC3 [NGIC-I, 12-propanenitrile,5,6,7,13-tetrahydro-5-oxo-12H-Indolo[2,3-a]pyrrolo[3,4-c]carbazole] | 0 × 10^5 | * (indicates the inhibitor causes significant cell death, and cell number is less than originally seeded cell number.) | 0.9 × 10^5 | 78% | 1.6 × 10^5 | 32% | 0.2 × 10^5 | * (indicates the inhibitor causes significant cell death, and cell number is less than originally seeded cell number.) | 1.6 × 10^5 | 82% | 2.7 × 10^5 | 49% | 0.3 × 10^5 | * (indicates the inhibitor causes significant cell death, and cell number is less than originally seeded cell number.) | 0.9 × 10^5 | 73% | 78% | 3.2 × 10^5 | 15% | 3.7 × 10^5 | cells that went to apoptosis upon treatment (KB oral cancer cells): all; originally seeded cells survived [3]: About 50%; originally seeded cells survived [5]: 75%; % inhibiton [9]: 48%; Treated (cell number × 10^5) [10]: 1.7 × 10^5; % inhibiton [10]: 30%; Treated (cell number × 10^5) [11]: 1.2 × 10^5; % inhibiton [11]: 44%; inhibition of growth in contrast to untreated cells, range over the other treated cancer cells (human cancer cells): 25-82% |
| CN(C)CC1CCn2c(c(C3=C(c4cn(C)c5ccccc45)C(=O)NC3=O)c3ccccc32)C1.Cl (stereo not drawn) [Ro31-0432] | 2.1 × 10^5 | 44% | 2.4 × 10^5 | 43% | 1.3x ± × 10^5 | 48% | 1.4 × 10^5 | 81% | 9.2 × 10^5 | 10% | 4.2 × 10^5 | 21% | 1.3 × 10^5 | 60% | 2.3 × 10^5 | 19% | 30% | 3.0 × 10^5 | 19% | 6.0 × 10^5 | % inhibiton [9]: 15%; Treated (cell number × 10^5) [10]: 1.7 × 10^5; % inhibiton [10]: 30%; Treated (cell number × 10^5) [11]: 1.2 ± 0.1 × 10^5; % inhibiton [11]: 31%; inhibition of growth in contrast to untreated cells, range over the other treated cancer cells (human cancer cells): 10-60% |
| Cn1cc(C2=C(c3cn(CCCN)c4ccccc34)C(=O)NC2=O)c2ccccc21 [Ro31-7549, 2-[1-3(Aminopropyl)indol-3-yl]-3(1-methyl-1H-indol-3-yl)maleimide, Acetate] | 0 × 10^5 | * (indicates the inhibitor causes significant cell death, and cell number is less than originally seeded cell number.) | 0 × 10^5 | * (indicates the inhibitor causes significant cell death, and cell number is less than originally seeded cell number.) | 0.5 × 10^5 | 81% | 0.7 × 10^5 | 92% | 1.9 × 10^5 | 80% | 2.8 × 10^5 | 48% | 6 × 10^5 | * (indicates the inhibitor causes significant cell death, and cell number is less than originally seeded cell number.) | 0.6 ± 0.1 × 10^5 | 80% | * (indicates the inhibitor causes significant cell death, and cell number is less than originally seeded cell number.) | 1.7 × 10^5 | 63% | 2.7 × 10^5 | cells that went to apoptosis upon treatment (KB oral cancer cells): all; cells that went to apoptosis upon treatment [1]: all; cells that went to apoptosis upon treatment [5]: significant number; cells that went to apoptosis upon treatment [7]: significant number; Treated (cell number × 10^5) [7]: 0.2 ± 0.05 × 10^5; % inhibiton [9]: 62%; Treated (cell number × 10^5) [10]: 1.7 × 10^5; % inhibiton [10]: 30%; Treated (cell number × 10^5) [11]: 1.2 × 10^5; % inhibiton [11]: 43%; inhibition of growth in contrast to untreated cells, range over the other treated cancer cells (human cancer cells): 43-92% |
